target: human ACC2 (Homo sapiens (Human), UniProt O00763); assay: ACC2 assay, spectrophotometric 384 well assay (NADH-linked, coupled lactate dehydrogenase/pyruvate kinase reaction); assay type: biochemical; settings: hACC2 construct lacking the 128 N-terminal amino acids; 25° C., 340 nm over 15 minutes
Description: Spectrophotometric 384 Well Assay
Malonyl CoA formation by acetyl CoA carboxylases is stoichometrically linked to the consumption of ATP. ACC2 activity is measured in a NADH-linked kinetic method measuring ADP generated during the ACC reaction using a coupled lactate dehydrogenase/pyruvate kinase reaction.
For biological testing, a human ACC2 construct which lacks the 128 amino acids at the N-terminus for increased solubility (nt 385-6966 in Genbank entry AJ575592) is cloned. The protein is then expressed in insect cells using a baculoviral expression system. Protein purification is performed by anion exchange.
All compounds are dissolved in dimethyl sulfoxide (DMSO) to a concentration of 10 mM.
Assay reactions are then carried out in 384-well plates, with hACC2 in an appropriate dilution and at final assay concentrations (f.c.) of 100 mM Tris (pH 7.5), 10 mM trisodium citrate, 25 mM KHCO3, 10 mM MgCl2, 0.5 mg/mL BSA, 3.75 mM reduced L-glutathione, 15 U/mL lactate dehydrogenase, 0.5 mM phosphoenolpyruvate, 15 U/mL pyruvate kinase, compounds at different concentrations at final DMSO concentrations of 1%.
The enzymatic reaction is then started by addition of a mixture of NADH, acetyl Coenzyme A (both 200 μM f.c.) and ATP (500 uM f.c.). The decrease of the optical density (slope S) is then determined at 25° C. at a wavelength of 340 nm over 15 minutes in a spectrophotometric reader.
Each assay microtiter plate contains wells with vehicle instead of compound as controls for the non-inhibited enzyme (100% CTL; ‘HIGH’) and wells without acetyl-CoA as controls for non-specific NADH degradation (0% CTL; ‘LOW’).
The slope S is used for calculation of % CTL=(S(compound)−S(‘LOW’))/(S(‘HIGH’)−S(‘LOW’))*100. Compounds will give values between 100% CTL (no inhibition) and 0% CTL (complete inhibition).
For IC50 value determination, the sample slope in the presence of the test compound after subtraction of the low controls (S(compound)−S(‘LOW’)) are used. An IC50 value is derived from the compound slopes at different dosages after subtraction of the low controls (S(compound)−S(‘LOW’)) by non-linear regression curve fitting (equation y=(A+((B−A)/(1+((C/x)^D))))).

Sequence of human ACC2 (O00763 129-2458): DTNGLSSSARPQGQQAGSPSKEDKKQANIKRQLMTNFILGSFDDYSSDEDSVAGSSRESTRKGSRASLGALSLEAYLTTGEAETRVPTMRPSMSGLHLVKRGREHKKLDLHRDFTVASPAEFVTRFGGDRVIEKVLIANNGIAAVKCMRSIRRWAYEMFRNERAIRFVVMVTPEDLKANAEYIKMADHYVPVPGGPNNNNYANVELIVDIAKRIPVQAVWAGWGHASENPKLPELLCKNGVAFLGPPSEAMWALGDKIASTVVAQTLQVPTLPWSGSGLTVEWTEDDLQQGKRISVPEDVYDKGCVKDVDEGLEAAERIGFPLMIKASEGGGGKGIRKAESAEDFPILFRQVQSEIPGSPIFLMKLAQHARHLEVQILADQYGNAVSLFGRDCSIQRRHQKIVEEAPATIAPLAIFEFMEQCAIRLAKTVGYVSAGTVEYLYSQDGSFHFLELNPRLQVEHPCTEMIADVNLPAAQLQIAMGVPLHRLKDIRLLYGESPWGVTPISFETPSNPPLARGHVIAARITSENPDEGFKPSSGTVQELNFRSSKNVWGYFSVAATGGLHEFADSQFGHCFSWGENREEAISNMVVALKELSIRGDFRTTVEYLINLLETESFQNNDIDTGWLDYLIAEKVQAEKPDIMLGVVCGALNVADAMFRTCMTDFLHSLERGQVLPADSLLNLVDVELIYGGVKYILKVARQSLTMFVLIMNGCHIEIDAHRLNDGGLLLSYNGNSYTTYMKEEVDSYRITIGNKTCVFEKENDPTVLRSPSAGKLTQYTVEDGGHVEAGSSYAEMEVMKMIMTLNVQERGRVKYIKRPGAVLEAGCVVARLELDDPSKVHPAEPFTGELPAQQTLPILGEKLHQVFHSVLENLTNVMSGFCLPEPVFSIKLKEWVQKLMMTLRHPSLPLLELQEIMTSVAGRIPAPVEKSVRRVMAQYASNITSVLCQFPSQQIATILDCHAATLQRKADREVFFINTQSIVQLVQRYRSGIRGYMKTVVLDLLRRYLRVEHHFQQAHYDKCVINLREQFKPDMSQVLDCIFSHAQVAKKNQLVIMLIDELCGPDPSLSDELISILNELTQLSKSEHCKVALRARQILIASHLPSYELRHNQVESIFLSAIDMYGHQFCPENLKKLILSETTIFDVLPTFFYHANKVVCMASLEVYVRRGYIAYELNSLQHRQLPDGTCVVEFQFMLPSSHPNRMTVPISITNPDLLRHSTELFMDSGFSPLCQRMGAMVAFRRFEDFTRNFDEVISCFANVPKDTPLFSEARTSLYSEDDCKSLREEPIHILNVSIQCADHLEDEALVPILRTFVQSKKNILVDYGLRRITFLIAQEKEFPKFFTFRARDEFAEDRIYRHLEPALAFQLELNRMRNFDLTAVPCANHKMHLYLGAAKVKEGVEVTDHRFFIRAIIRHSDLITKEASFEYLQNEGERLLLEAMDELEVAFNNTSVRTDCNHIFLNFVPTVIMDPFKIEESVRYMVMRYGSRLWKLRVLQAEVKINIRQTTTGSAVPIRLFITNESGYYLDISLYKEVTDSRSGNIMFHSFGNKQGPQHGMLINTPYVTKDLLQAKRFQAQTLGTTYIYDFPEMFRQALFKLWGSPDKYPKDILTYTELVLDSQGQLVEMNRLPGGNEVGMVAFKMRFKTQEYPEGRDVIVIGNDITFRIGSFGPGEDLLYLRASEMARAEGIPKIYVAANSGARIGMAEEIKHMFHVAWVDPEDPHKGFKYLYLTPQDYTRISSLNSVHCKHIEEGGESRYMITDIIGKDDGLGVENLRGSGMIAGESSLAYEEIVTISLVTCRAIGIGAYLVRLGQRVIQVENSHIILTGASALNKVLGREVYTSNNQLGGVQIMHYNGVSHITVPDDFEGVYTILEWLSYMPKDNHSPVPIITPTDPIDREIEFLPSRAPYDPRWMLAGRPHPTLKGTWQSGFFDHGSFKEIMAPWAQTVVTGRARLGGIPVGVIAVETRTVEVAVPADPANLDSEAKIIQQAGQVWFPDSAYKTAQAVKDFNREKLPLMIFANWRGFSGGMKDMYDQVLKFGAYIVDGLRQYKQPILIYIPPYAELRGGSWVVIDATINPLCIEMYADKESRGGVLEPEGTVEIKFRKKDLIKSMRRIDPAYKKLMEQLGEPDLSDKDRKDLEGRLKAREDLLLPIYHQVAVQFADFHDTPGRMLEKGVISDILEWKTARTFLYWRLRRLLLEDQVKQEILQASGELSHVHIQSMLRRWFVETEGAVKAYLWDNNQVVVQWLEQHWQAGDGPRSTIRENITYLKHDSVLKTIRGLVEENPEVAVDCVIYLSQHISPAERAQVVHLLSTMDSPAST

| IC50 | Structure (SMILES) |
| --- | --- |
| 230 nM | CCOc1cc(C#Cc2ccc(C[C@H](C)NC(C)=O)cc2)ccn1 (stereo in doubt) [Example 23.1, N-{2-[4-(2-Ethoxy-pyridin-4-ylethynyl)-phenyl]-1-methyl-ethyl}-acetamide] |
| 160 nM | CCC(C)Nc1ncc(C#Cc2ccc(CC(C)NC(C)=O)cc2)cn1 (stereo not drawn) [15.1] |
| 1900 nM | CCOc1cc(C#Cc2ccc(CC(C)NC(C)=O)cc2)ncn1 (stereo not drawn) [17.1] |
| 1800 nM | CCOc1ccc(C#Cc2ccc(CC(C)N3CC(C)(C)C3=O)cc2)cc1 (stereo not drawn) [19.1] |
| 130 nM | CC(=O)NC(C)Cc1ccc(C#Cc2ccc(-c3ccccc3)cc2)cc1 (stereo not drawn) [21.1] |
| 1600 nM | COc1ccc(C#Cc2ccc(CC(C)NC(C)=O)cc2)cc1OC (stereo not drawn) [22.1] |
| 140 nM | CC(=O)NC(C)Cc1ccc(C#Cc2ccc(C(C)(C)C)cc2)cc1 (stereo not drawn) [25.1] |
| 7200 nM | CCOc1ccc(C#Cc2ccc(CCNC(C)=O)nc2)cc1 [26.1] |
| 24400 nM | C[C@H](NC(=O)C1CC1)c1ccc(I)cc1 [28.1] |
| 330 nM | CC(=O)NC(C)Cc1ccc(C#Cc2ccnc(N(C)C3CCCC3)n2)cc1 (stereo not drawn) [30.1] |
| 170 nM | CC(Cc1ccc(C#Cc2cnc(OC3CCC3)nc2)cc1)NC(=O)c1cncs1 (stereo not drawn) [34.1] |
| 530 nM | CC(=O)NC(C)Cc1ccc(C#Cc2ccc(Cl)cc2)cc1 (stereo not drawn) [Example 1.1, N-(1-(4-((4-Chlorophenyl)ethynyl)phenyl)propan-2-yl)acetamide] |
| 810 nM | CC(=O)NC(C)Cc1ccc(C#Cc2ccc(C)cc2)cc1 (stereo not drawn) [Example 1.2] |
| 690 nM | CC(=O)NC(C)Cc1ccc(C#Cc2ccc(-c3ccc(Cl)cc3)nn2)cc1 (stereo not drawn) [Example 1.3] |
| 2000 nM | CC(=O)NC(C)Cc1ccc(C#Cc2cccc3ccccc23)cc1 (stereo not drawn) [Example 1.4] |
| 2400 nM | CC(=O)NC(C)Cc1ccc(C#Cc2ccc(C(=O)O)cc2)cc1 (stereo not drawn) [Example 1.5] |
| 880 nM | CC(=O)NC(C)Cc1ccc(C#Cc2ccc3ccccc3c2)cc1 (stereo not drawn) [Example 1.6] |
| 4900 nM | CC(=O)NC(C)Cc1ccc(C#Cc2cccc(OC(F)F)c2)cc1 (stereo not drawn) [Example 1.7] |
| 200 nM | CC(=O)NC(C)Cc1ccc(C#Cc2ccc(Oc3ccccc3)nc2)cc1 (stereo not drawn) [Example 1.8] |
| 8400 nM | CC(=O)NC(C)Cc1ccc(C#Cc2cccc(C(=O)N3CCN(C(C)C)CC3)c2)cc1 (stereo not drawn) [Example 1.9] |
| 5500 nM | CC(=O)NC(C)Cc1ccc(C#Cc2ccc(C(=O)N3CCOCC3)cc2)cc1 (stereo not drawn) [Example 1.10] |
| 1700 nM | CC(=O)NC(C)Cc1ccc(C#Cc2ccc(C(=O)NCC(F)(F)F)cc2)cc1 (stereo not drawn) [Example 1.11] |
| 2300 nM | CC(=O)NC(C)Cc1ccc(C#Cc2ccc(C(=O)NCc3ccccc3)cc2)cc1 (stereo not drawn) [Example 1.12] |
| 1100 nM | COc1ccc(-c2cnc(C#Cc3ccc(CC(C)NC(C)=O)cc3)cn2)cc1 (stereo not drawn) [Example 1.13] |
| 200 nM | CC(=O)NC(C)Cc1ccc(C#Cc2cnc(-c3ccc(Cl)cc3)cn2)cc1 (stereo not drawn) [Example 1.14] |

| IC50 | Structure (SMILES) |
| --- | --- |
| 120 nM | CC(=O)NC(C)Cc1ccc(C#Cc2ccc(-c3ccc(F)cc3)cn2)cc1 (stereo not drawn) [Example 1.16] |
| 390 nM | CC(=O)NC(C)Cc1ccc(C#Cc2ccc(-c3ccc(C)cc3)cn2)cc1 (stereo not drawn) [Example 1.17] |
| 990 nM | CC(=O)NC(C)Cc1ccc(C#Cc2ccc(C(=O)N3CCCC3)c(C)c2)cc1 (stereo not drawn) [Example 1.18] |
| 1500 nM | CC(=O)NC(C)Cc1ccc(C#Cc2ccc(N(C)C)cc2)cc1 (stereo not drawn) [Example 1.19] |
| 610 nM | CC(=O)NC(C)Cc1ccc(C#Cc2ccc(OC(C)C)cn2)cc1 (stereo not drawn) [Example 1.20] |
| 400 nM | CCc1ccc(C#Cc2ccc(CC(C)NC(C)=O)cc2)cc1 (stereo not drawn) [Example 1.21] |
| 290 nM | CC(=O)NC(C)Cc1ccc(C#Cc2ccc(C(C)C)cc2)cc1 (stereo not drawn) [Example 1.22] |
| 1000 nM | CC(=O)NC(C)Cc1ccc(C#Cc2cccc(C(C)=O)c2)cc1 (stereo not drawn) [Example 1.23] |
| 1100 nM | CC(=O)NC(C)Cc1ccc(C#Cc2ccc(Br)cc2F)cc1 (stereo not drawn) [Example 1.24] |
| 5100 nM | CC(=O)NC(C)Cc1ccc(C#Cc2ccc3c(ccn3CCO)c2)cc1 (stereo not drawn) [Example 1.25] |
| 320 nM | COc1ccc(C#Cc2ccc(CC(C)NC(C)=O)cc2)c(C)c1 (stereo not drawn) [Example 1.26] |
| 550 nM | CC(=O)NC(C)Cc1ccc(C#Cc2cccc(OC(C)C)c2)cc1 (stereo not drawn) [Example 1.27] |
| 120 nM | CCOc1ccc(C#Cc2ccc(CC(C)NC(C)=O)cc2)cc1 (stereo not drawn) [Example 1.28, N-{2-[4-(4-ethoxy-phenylethynyl)-phenyl]-1-methyl-ethyl}-acetamide] |
| 250 nM | CC(=O)NC(C)Cc1ccc(C#Cc2ccc(OC(C)C)cc2)cc1 (stereo not drawn) [Example 1.29] |
| 2100 nM | COc1ccc(C#Cc2ccc(C(C)NC(C)=O)cc2)c(C)c1 (stereo not drawn) [Example 1.30] |
| 450 nM | CC(Cc1ccc(C#Cc2ccc(-c3ccc(F)cc3)cn2)cc1)NC(=O)C1CC1 (stereo not drawn) [Example 1.31] |
| 16900 nM | CC(=O)NC(C)Cc1ccc(C#Cc2cccc(C(=O)N3CCOCC3)c2)cc1 (stereo not drawn) [Example 1.32] |
| 460 nM | CC(=O)NC(C)Cc1ccc(C#Cc2ccc(-n3cccc3)cc2)cc1 (stereo not drawn) [Example 2.1, N-(1-(4-((4-(1H-Pyrrol-1-yl)phenyl)ethynyl)phenyl)propan-2-yl)acetamide] |
| 390 nM | CCOC(=O)c1cccc(C#Cc2ccc(CC(C)NC(C)=O)cc2)c1 (stereo not drawn) [Example 2.2] |
| 1400 nM | CC(=O)NC(C)Cc1ccc(C#Cc2ccc(C(F)(F)F)cc2Cl)cc1 (stereo not drawn) [Example 2.3] |
| 3300 nM | CC(=O)NC(C)Cc1ccc(C#Cc2cccc3ncccc23)cc1 (stereo not drawn) [Example 2.4] |
| 820 nM | CC(=O)NC(C)Cc1ccc(C#Cc2ccc(OCC3(N)CC3)c(C)c2)cc1 (stereo not drawn) [Example 2.5] |
| 1400 nM | CC(=O)NC(C)Cc1ccc(C#Cc2ccc(N3CCCCC3=O)cc2)cc1 (stereo not drawn) [Example 2.6] |
| 760 nM | CC(=O)NC(C)Cc1ccc(C#Cc2ccc(OC(F)F)cc2)cc1 (stereo not drawn) [Example 2.7] |
| 730 nM | CC(=O)NC(C)Cc1ccc(C#Cc2ccc3c(c2)CCO3)cc1 (stereo not drawn) [Example 2.8] |

| IC50 | Structure (SMILES) |
| --- | --- |
| 1500 nM | COc1ncc(C#Cc2ccc(CC(C)NC(C)=O)cc2)c(OC)n1 (stereo not drawn) [Example 2.9] |
| 7500 nM | CC(=O)NC(C)Cc1ccc(C#Cc2ccc(OC(F)(F)F)cc2C#N)cc1 (stereo not drawn) [Example 2.10] |
| 270 nM | CC(=O)NC(C)Cc1ccc(C#Cc2ccc(C(C)(C)C)cc2C#N)cc1 (stereo not drawn) [Example 2.11] |
| 6700 nM | CC(=O)NC(C)Cc1ccc(C#Cc2ccc(CN3CCCC3)cc2)cc1 (stereo not drawn) [Example 2.12] |
| 5300 nM | COc1ncccc1C#Cc1ccc(CC(C)NC(C)=O)cc1 (stereo not drawn) [Example 2.13] |
| 130 nM | CCCOc1cc(C#Cc2ccc(CC(C)NC(C)=O)cc2)ccn1 (stereo not drawn) [Example 2.14] |
| 560 nM | CC(=O)NC(C)Cc1ccc(C#Cc2ccc(Br)cc2)cc1 (stereo not drawn) [Example 2.15] |
| 120 nM | CC(=O)NC(C)Cc1ccc(C#Cc2ccc(Oc3ccccc3)cc2)cc1 (stereo not drawn) [Example 2.16] |
| 110 nM | CC(=O)NC(C)Cc1ccc(C#Cc2ccc(OCC(C)C)cc2)cc1 (stereo not drawn) [Example 2.17] |
| 2200 nM | CC(=O)NC(C)Cc1ccc(C#Cc2ccc(CCO)cc2)cc1 (stereo not drawn) [Example 2.18] |
| 3600 nM | CC(=O)NC(C)Cc1ccc(C#Cc2ccc(C(C)=O)cc2)cc1 (stereo not drawn) [Example 2.19] |
| 300 nM | CCCc1ccc(C#Cc2ccc(CC(C)NC(C)=O)cc2)cc1 (stereo not drawn) [Example 2.20] |
| 240 nM | CC(=O)NC(C)Cc1ccc(C#Cc2ccc(OC(C)C)nc2)cc1 (stereo not drawn) [Example 2.21] |
| 720 nM | COc1ccc(C#Cc2ccc(CC(C)NC(C)=O)cc2)cn1 (stereo not drawn) [Example 2.22] |
| 320 nM | CC(=O)NC(C)Cc1ccc(C#Cc2ccc(OCC3CC3)nc2)cc1 (stereo not drawn) [Example 2.23] |
| 760 nM | COCCOc1ccc(C#Cc2ccc(CC(C)NC(C)=O)cc2)cn1 (stereo not drawn) [Example 2.24] |
| 170 nM | CC(=O)NC(C)Cc1ccc(C#Cc2ccc(OC3CCCC3)nc2)cc1 (stereo not drawn) [Example 2.25] |
| 930 nM | CC(=O)NC(C)Cc1ccc(C#Cc2ccc(Oc3cncnc3)nc2)cc1 (stereo not drawn) [Example 2.26] |
| 280 nM | CCCOc1ccc(C#Cc2ccc(CC(C)NC(C)=O)cc2)cn1 (stereo not drawn) [Example 2.27] |
| 270 nM | CCOc1cc(C#Cc2ccc(CC(C)NC(C)=O)cc2)ccn1 (stereo not drawn) [Example 2.28] |
| 1600 nM | CCOc1ccc(C#Cc2ccc(CC(C)NC(C)=O)cc2)nn1 (stereo not drawn) [Example 2.29] |
| 330 nM | COc1ccc(C#Cc2ccc(CC(C)NC(C)=O)cc2)cc1 (stereo not drawn) [Example 2.30] |
| 280 nM | CCOc1ccc(C#Cc2ccc(CC(C)NC(C)=O)cc2)cn1 (stereo not drawn) [Example 2.31] |
| 160 nM | CCCOc1ccc(C#Cc2ccc(CC(C)NC(C)=O)cc2)c(OC)c1 (stereo not drawn) [Example 2.32] |
| 270 nM | CC(=O)NCC(C)(C)c1ccc(C#Cc2cnc(NC3CCC3)nc2)cc1 [Example 2.33] |

From patent US8835472B2, “Compounds, pharmaceutical compositions and uses thereof” (Boehringer Ingelheim International GmbH, priority 2010, dated 2014)
